Test results as given in paper PMC10380377 (International Journal of Molecular Sciences, 2023).
Positions of bridges follow the written chain, without caps; N, C: chain ends. Residues, ends and D or L forms follow the SMILES beside them.

Assays:
human Kv11.1 [1] = target: T1, human Kv11.1 (Homo sapiens, UniProt Q12809); assay: in vitro; settings: pH 7.2
human Kv10.1 = target: T2, human Kv10.1 (Homo sapiens, UniProt O95259); assay: cell-based
T2 construct: expressed in transfected cells; host or cells: Xenopus laevis oocytes injected with cRNA (pSGEM clone, T7 transcription)
T2 sequence (O95259 1-989): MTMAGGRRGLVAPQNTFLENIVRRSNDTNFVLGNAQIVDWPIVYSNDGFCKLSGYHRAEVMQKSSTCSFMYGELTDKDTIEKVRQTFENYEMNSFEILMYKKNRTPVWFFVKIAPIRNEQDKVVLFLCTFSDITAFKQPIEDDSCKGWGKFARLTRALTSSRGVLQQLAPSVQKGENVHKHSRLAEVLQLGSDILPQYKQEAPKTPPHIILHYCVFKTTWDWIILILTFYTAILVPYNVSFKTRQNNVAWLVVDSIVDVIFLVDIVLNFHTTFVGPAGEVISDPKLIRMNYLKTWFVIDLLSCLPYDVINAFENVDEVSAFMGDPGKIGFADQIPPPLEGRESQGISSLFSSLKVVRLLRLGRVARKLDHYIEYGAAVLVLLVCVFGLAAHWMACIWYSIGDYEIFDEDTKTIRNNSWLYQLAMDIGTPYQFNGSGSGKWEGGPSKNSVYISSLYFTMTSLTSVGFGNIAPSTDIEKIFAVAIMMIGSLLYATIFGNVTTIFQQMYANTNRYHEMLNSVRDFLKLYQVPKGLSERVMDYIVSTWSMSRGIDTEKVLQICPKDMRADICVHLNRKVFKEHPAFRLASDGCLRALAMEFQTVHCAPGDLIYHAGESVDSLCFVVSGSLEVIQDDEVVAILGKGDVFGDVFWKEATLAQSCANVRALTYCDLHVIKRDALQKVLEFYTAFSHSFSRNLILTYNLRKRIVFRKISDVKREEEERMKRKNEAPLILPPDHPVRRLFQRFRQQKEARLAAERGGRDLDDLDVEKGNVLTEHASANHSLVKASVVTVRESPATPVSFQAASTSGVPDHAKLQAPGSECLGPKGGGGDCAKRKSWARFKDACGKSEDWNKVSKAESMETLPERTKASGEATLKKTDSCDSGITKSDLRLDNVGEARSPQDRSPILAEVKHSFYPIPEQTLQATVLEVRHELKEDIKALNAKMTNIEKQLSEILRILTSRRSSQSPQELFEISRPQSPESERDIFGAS

Kv10.1 potassium channel = format: cell-based, human
human Kv11.1 [2] = target: T1, human Kv11.1
human Kv1.6 = target: T3, human Kv1.6 (Homo sapiens, UniProt P17658); assay: cell-based; format: cell-based
T3 construct: expressed in transfected cells; host or cells: Xenopus laevis oocytes injected with cRNA (pSGEM clone, T7 transcription)
T3 sequence (P17658 whole entry): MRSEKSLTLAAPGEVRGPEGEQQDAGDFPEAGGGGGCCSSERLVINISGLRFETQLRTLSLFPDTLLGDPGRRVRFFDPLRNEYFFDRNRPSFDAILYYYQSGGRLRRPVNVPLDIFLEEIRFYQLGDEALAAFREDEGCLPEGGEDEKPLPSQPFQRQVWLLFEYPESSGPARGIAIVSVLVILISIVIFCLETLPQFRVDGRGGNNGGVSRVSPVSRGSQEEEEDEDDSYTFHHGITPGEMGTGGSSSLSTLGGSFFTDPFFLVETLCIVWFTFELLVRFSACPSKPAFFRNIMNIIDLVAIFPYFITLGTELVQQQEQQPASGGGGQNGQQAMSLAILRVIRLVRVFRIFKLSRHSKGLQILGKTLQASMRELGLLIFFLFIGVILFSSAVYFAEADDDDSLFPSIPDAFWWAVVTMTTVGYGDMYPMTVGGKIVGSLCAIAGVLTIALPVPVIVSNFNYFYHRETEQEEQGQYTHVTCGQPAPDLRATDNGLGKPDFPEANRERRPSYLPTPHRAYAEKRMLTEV

T1 sequence (Q12809 whole entry): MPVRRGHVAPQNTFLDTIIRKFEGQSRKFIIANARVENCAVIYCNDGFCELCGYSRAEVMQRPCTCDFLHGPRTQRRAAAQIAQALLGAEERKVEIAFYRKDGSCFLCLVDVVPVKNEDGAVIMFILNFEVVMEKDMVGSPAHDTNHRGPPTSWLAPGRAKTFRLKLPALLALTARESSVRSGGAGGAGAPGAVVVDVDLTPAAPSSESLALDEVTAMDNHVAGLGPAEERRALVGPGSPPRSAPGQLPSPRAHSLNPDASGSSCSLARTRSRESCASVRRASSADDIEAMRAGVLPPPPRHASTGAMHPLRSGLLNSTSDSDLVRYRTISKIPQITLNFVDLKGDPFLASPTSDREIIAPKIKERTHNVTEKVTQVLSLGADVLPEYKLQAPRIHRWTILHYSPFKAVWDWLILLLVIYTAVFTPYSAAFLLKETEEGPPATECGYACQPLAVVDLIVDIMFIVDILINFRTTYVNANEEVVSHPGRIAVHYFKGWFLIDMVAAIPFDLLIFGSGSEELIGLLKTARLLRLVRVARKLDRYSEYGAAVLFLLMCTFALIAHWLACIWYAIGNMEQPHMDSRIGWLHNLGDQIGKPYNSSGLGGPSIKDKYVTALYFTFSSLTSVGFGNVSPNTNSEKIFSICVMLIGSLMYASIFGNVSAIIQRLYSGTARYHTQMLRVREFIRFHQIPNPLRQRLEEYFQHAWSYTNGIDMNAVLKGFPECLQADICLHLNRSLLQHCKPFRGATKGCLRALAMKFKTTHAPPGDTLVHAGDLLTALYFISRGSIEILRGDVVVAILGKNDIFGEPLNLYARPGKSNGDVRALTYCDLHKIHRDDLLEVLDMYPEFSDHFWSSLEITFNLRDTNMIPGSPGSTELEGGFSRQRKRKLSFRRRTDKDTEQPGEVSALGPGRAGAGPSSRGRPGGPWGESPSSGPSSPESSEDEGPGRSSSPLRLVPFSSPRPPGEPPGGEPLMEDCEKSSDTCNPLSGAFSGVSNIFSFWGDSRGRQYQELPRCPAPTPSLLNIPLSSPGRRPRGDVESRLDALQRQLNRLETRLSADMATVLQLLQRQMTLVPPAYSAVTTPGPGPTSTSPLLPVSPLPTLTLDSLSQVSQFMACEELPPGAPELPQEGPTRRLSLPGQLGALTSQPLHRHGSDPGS

CC[C@H](C)[C@H](NC(=O)[C@@H]1CSSC[C@@H]2NC(=O)[C@H](C(C)C)NC(=O)[C@H](CC(C)C)NC(=O)CNC(=O)[C@H](CC(C)C)NC(=O)CNC(=O)[C@@H]3CCCN3C(=O)[C@H](CC(C)C)NC(=O)CNC(=O)[C@@H]3CSSC[C@H](NC(=O)[C@H](C)NC(=O)CNC(=O)[C@H](CCCNC(=N)N)NC(=O)[C@H](CSSC[C@H](NC(=O)CN)C(=O)NCC(=O)N[C@@H](C(C)C)C(=O)N[C@@H](CC(=O)O)C(=O)NCC(=O)N[C@@H](CCC(N)=O)C(=O)N[C@@H](Cc4ccccc4)C(=O)N3)NC2=O)C(=O)N[C@@H](Cc2ccccc2)C(=O)N[C@@H](CC(C)C)C(=O)N[C@@H](C(C)C)C(=O)N1)C(=O)N[C@@H](Cc1ccc(O)cc1)C(=O)N[C@H](C(=O)N1CCC[C@H]1C(=O)O)[C@@H](C)CC [κO-SrVIA] (H-GCGVDGQFCGLPGLGLVCCRGACFLVCIYIP-OH; disulfide 2-19, 9-23, 18-27) showed an inhibition at 0.4 µM (human Kv11.1 [1]) of 10%, a Hill coefficient (human Kv10.1) of 1.86 ± 0.25 and an inhibition at 0.4 µM (human Kv10.1; read-out: inhibitory activity) of 10%. For the same compound, the “inhibitory activity on the Kv10.1 channel” value (Kv10.1 potassium channel) was “the only fraction that had inhibitory activity on the Kv10.1 channel”, the Hill coefficient (human Kv11.1 [2]) was 2.85 ± 0.46 and the Hill coefficient (human Kv1.6) was 3.35 ± 0.44. The “effect on Kv1.6” value (human Kv1.6) was “no effect” and the inhibition at 4 µM (human Kv1.6) was < 50%.
